From patent publication US8664160B2, “Fungicidal mixtures” (BASF SE, priority 2005, dated 2014)

System: bentgrass
Experiment: Seed treatment of bentgrass: ground coverage by emerged plants
Assay type: in vivo
Conditions: 20 g a.i./100 kg seed, greenhouse, humid conditions, 7 days after planting, untreated 10.8%
Excerpt: Seeds of bentgrass were seed-treated with the products and concentrations listed. Triticonazol and Pyraclstrobin were used as 200 g/l FS-formulation. Metalaxyl als a 17.7% LS-formulation. Treated sees were planted at the day of treatment and then kept under humid conditions in the greenhouse. 7 days after plating the ground coverage by emerged plants were estimated in percentage.

COCC(=O)N(c1c(C)cccc1C)[C@H](C)C(=O)OC [Metalaxyl-M, metalaxyl-M]
% covered ground: 36.3%
